Source: patent US11180503B2, “[1,2,4]Triazolo[4,3-A]pyrazin-6(5H)-one derivatives” (Eli Lilly and Company, priority 2017, dated 2021)

Key:
Type in all cases: biochemical
human PDE6A/6B = human PDE6A/6B (Homo sapiens (Human), UniProt P16499+P35913); test: PDE enzyme assay using [3H]cGMP as substrate (radiometric SPA); details: human PDE6A/6B dimer 5 nM, [3H]cGMP 80 nM; read-out: PDE 6AB IC50
Source text: (§1) The nucleotide sequences encoding full-length human PDE1A (NP_001003683.1) and PDE1C (NP_005011.1) are inserted into pFastBac1 (Invitrogen) vector with an N-terminal HIS tag. The nucleotide sequences encoding full-length human PDE4D (NP_006194.2) and catalytic domain (residue 641-1141) of PDE3A (NP_000912.3) are inserted into pFastBac1 (Invitrogen) vector with a C-terminal HIS tag. The nucleotide sequences encoding full-length human PDE6A (NP_000431.2) and PDE6B (AAH00249.1) are inserted into pFastBacDual (Invitrogen) vector with an N-terminal HIS tag and N-terminal Flag tag, respectively, for production of PDE6A/6B dimer. Baculovirus generation and protein expression in Sf9 cells are carried out according to the protocol of Bac-to-Bac Baculovirus Expression system (Invitrogen). The nucleotide sequence encoding full-length human PDE1B (NP_000915.1) is inserted into pIEX4 (Novagen) with a C-terminal HIS tag, and both protein productions in Sf9 cells are carried out according to the vendor's protocol (Novagen). The His tagged PDE proteins are purified using Ni-NTA agarose (Qiagen) followed by size exclusion chromatography on a SUPERDEX® 200 column (GE Healthcare) in storage buffer (20 mM Tris-HCl, pH7.5, 150 mM NaCl, 10% Glycerol). The Flag tagged PDE proteins including PDE6A/6B are purified using anti-Flag M2-agarose (Sigma), after purification through NiNTA column chromatography and eluted in storage buffer (50 mM Tris-HCl, pH7.5, 150 mM NaCl, 10% Glycerol, 0.1 mg/ml Flag peptide). All purified proteins are stored at −80° C. in small aliquots.
(§2) All 3′,5′ cyclic nucleotide phosphodiesterase (PDE) enzyme activities are measured with a radiometric enzyme assay based on SPA detection system (scintillation proximity assay). Compounds to be tested are diluted in pure dimethyl sulfoxide (DMSO) using ten point concentration response curves. Maximal compound concentration in the reaction mixture is either 10 or 100 μM. Compounds at the appropriate concentration are pre-incubated with either of the PDE enzymes for 30 minutes before the reaction is started by the addition of substrate. Reactions are allowed to proceed for 60 minutes at room temperature. Next, reactions are stopped by addition of SPA beads. Samples are read 12 hours later in a MICROBETA™ TRILUX® Counter. “IC50” refers to the concentration of the compound that produces 50% of the maximal inhibitory response possible for that compound. IC50 values are calculated by plotting the normalized data vs. log [compound] and fitting the data using a four parameter logistic equation.
The following phosphodiesterase activities are measured using [^3H]cGMP as reaction substrate: human PDE6A/6B. The catalytic active form of human PDE6 is a dimer composed of a α (human PDE6A) and β subunits (human PDE6B). The dimer of human PDE6A/6B is produced by the coexpression and purification strategy, using two purification steps, i.e., NiNTA and anti-FLAG Sepharose chromatography. The assay buffer is prepared to give a final concentration in the assay of 50 mM Tris-HCl, 8.3 mM MgCl2, 1.7 mM EDTA and 0.1% Bovine serum albumin at pH 7.5. The final enzyme concentration is 5 nM. The reactions are started by addition of the substrate, [^3H]cGMP, to give a final concentration of 80 nM.

human PDE1C = human PDE1C (Homo sapiens (Human), UniProt Q14123); test: Ca2+-calmodulin dependent PDE enzyme assay (radiometric SPA, [3H]cAMP); details: human PDE1C 0.0012 nM, [3H]cAMP 47 nM; read-out: PDE 1C IC50
Source text: as §1, §2
(§3) PDE1B, PDE1A, and PDE1C are cloned and purified following standard protein generation procedures. The assay buffer is prepared to give a final concentration in the assay of 50 mM Tris-HCl, 50 mM MgCl2, 4 mM CaCl2, 0.1% Bovine serum albumin and 6 U/ml Calmodulin in water, at pH 7.5. The final enzyme concentration is 0.25, 0.074 and 0.0012 nM, for PDE1A, PDE1B and PDE1C respectively. The reactions are started by addition of the substrate, [^3H]cAMP, to give a final concentration of 47 nM.

human PDE1B = human PDE1B (Homo sapiens (Human), UniProt Q01064); test: as above; details: human PDE1B 0.074 nM, [3H]cAMP 47 nM; read-out: PDE 1B IC50
Source text: as §1, §2, §3

human PDE1A = human PDE1A (Homo sapiens (Human), UniProt P54750); test: as above; details: human PDE1A 0.25 nM, [3H]cAMP 47 nM; read-out: PDE 1A IC50
Source text: as §1, §2, §3

human PDE4D = human PDE4D (Homo sapiens (Human), UniProt Q08499); test: PDE enzyme assay using [3H]cAMP as substrate (radiometric SPA); details: human PDE4D 0.021 nM, [3H]cAMP 47 nM; read-out: PDE 4D IC50
Source text: as §1, §2
(§4) The following phosphodiesterase activities are measured using [^3H]cAMP as reaction substrate: human PDE3A (catalytic domain) and human PDE4D. Both enzymes are cloned and purified following standard procedures. The assay buffer is prepared to give a final concentration in the assay of 50 mM Tris-HCl, 8.3 mM MgCl2, 1.7 mM ethylenediaminetetraacetic acid (EDTA) and 0.1% Bovine serum albumin at pH 7.5. Final enzyme concentrations are 0.008 and 0.021 nM for PDE3A and PDE4D, respectively. Reactions are started by addition of the substrate, [^3H]cAMP, to give a final concentration of 47 nM.

[1] = target: human PDE3A (catalytic domain) (Homo sapiens (Human), UniProt Q14432); test: as above; details: human PDE3A catalytic domain 0.008 nM, [3H]cAMP 47 nM
Source text: as §1, §2, §4

Sequence of human PDE3A (catalytic domain) (Q14432 641-1141): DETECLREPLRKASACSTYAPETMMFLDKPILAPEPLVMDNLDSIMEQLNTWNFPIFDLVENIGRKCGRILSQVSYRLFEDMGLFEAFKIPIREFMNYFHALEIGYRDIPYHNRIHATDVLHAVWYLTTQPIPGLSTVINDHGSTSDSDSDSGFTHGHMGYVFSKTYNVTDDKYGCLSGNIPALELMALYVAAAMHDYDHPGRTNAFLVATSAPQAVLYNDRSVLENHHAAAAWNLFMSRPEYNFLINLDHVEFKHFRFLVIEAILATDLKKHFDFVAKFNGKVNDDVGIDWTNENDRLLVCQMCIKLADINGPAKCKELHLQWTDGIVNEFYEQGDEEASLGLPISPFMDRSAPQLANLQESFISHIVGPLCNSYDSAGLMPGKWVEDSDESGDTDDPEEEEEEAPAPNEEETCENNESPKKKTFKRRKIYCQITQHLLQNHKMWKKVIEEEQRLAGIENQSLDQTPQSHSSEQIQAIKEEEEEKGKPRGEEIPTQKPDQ
Sequence of human PDE6A/6B (P16499 whole entry, stated change not applied, the tested form may be a part): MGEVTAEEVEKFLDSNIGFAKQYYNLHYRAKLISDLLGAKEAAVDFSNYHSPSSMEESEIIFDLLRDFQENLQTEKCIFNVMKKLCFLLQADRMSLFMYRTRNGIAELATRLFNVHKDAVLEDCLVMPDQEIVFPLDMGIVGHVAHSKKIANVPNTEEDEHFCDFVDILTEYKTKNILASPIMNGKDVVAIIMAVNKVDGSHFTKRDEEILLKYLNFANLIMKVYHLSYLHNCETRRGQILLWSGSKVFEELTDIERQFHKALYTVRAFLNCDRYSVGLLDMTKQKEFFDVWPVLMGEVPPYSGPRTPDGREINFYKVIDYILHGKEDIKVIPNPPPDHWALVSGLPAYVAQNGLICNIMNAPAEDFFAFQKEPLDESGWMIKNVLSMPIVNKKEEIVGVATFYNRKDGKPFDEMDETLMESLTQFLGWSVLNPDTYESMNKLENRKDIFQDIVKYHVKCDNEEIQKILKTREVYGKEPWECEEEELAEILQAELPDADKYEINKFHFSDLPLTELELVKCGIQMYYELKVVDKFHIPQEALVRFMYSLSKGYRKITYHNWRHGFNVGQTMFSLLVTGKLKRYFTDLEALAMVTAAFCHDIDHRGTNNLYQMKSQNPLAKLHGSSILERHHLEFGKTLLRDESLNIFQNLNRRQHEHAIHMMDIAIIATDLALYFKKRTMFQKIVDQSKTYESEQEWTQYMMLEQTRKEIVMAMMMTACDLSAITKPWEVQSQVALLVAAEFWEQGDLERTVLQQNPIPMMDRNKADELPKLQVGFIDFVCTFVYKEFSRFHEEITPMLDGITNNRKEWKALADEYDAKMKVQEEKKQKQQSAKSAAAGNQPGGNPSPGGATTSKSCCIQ
Sequence of human PDE6A/6B (P35913 other isoform, or with tags, fused parts or gaps isoform P35913-2): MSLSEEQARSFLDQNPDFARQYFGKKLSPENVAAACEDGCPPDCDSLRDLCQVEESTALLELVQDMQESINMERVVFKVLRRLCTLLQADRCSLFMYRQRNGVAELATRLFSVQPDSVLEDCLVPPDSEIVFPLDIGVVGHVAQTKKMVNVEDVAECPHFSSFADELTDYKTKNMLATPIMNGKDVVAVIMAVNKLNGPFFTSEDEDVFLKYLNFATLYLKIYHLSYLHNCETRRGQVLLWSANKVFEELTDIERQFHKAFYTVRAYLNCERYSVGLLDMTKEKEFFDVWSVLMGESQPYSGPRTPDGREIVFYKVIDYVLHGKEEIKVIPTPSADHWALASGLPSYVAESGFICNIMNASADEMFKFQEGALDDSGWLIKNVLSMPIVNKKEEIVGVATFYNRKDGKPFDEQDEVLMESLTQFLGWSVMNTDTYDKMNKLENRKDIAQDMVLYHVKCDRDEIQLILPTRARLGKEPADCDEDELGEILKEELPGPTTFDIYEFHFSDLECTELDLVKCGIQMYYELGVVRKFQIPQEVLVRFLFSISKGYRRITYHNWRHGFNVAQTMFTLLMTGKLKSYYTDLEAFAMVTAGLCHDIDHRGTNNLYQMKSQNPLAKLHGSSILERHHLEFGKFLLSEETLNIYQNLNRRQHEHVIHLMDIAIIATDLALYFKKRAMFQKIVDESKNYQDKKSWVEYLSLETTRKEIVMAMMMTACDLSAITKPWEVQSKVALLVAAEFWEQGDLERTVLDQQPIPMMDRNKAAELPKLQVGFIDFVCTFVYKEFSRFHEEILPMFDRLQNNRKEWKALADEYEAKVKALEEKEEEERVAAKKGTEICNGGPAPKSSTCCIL
Sequence of human PDE4D (Q08499 other isoform, or with tags, fused parts or gaps): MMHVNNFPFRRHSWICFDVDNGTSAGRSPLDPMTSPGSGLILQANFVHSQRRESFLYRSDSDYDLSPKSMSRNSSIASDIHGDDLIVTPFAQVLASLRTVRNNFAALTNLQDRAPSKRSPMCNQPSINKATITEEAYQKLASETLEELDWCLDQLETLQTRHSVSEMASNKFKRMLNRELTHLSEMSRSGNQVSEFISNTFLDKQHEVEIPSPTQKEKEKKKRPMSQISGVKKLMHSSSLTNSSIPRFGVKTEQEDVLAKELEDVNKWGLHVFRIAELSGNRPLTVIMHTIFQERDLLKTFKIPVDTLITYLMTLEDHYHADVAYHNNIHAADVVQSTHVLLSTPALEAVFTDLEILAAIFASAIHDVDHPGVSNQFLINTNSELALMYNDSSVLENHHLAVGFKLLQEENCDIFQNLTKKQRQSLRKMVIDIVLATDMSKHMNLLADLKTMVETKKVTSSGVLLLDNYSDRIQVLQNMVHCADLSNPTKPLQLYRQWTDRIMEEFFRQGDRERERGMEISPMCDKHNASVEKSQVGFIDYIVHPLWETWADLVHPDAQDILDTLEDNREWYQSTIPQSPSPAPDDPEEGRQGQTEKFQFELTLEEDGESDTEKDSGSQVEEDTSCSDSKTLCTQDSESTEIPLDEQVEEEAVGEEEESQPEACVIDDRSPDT

IC50 (human PDE6A/6B) [nM]	IC50 (human PDE1C) [nM]	IC50 (human PDE1B) [nM]	IC50 (human PDE1A) [nM]	IC50 (human PDE4D) [nM]	IC50 [1] [nM]	Structure (SMILES)
> 10000	0.609 ± 0.128	33.5 ± 6.26	13.9 ± 2.06	33600	> 100000	CCC(Cn1c(=O)c2nnc(C3(C4CC4)CC3)n2c2ncccc21)OC (racemic) [Example 4, rac-9-([1,1′-Bi(cyclopropan)]-1-yl)-5-(2-methoxybutyl)-pyrido[3,2-e][1,2,4]triazolo[4,3-a]pyrazin-6(5H)-one]
> 10000	1.49	40.1	26.8	> 100000	> 100000	CCC(Cn1c(=O)c2nnc(C3(C4CC4)CC3)n2c2ncccc21)OC (single isomer, unassigned) [Example 4a, 9-([1,1′-bi(cyclopropan)]-1-yl)-5-(2-methoxybutyl)pyrido[3,2-e][1,2,4]triazolo[4,3-a]pyrazin-6(5H)-one]
	1.46 ± 0.642	25.8 ± 0.614	15.1 ± 2.84	> 100000		CCC(Cn1c(=O)c2nnc(C3(C4CC4)CC3)n2c2ncccc21)OC (single isomer, unassigned) [Example 4b, 9-([1,1′-bi(cyclopropan)]-1-yl)-5-(2-methoxybutyl)pyrido[3,2-e][1,2,4]triazolo[4,3-a]pyrazin-6(5H)-one]
≥ 3450	< 0.508	0.406 ± 1.08	0.366 ± 0.765	1590 ± 217	> 50000	CCCCn1c(=O)c2nnc(C3(C4CC4)CC3)n2c2ncc(C)cc21 [Example 1, 9-([1,1′-bi(cyclopropan)]-1-yl)-5-butyl-3-methylpyrido[3,2-e][1,2,4]triazolo[4,3-a]pyrazin-6(5H)-one]
> 10000	1.62 ± 0.231	12.1 ± 1.06	8.62 ± 2.53	26000	> 100000	CCCCn1c(=O)c2nnc(C3(C(F)(F)F)CC3)n2c2ncc(C)cc21 [Example 2, 5-Butyl-3-methyl-9-(1-(trifluoromethyl)cyclopropyl)pyrido[3,2-e][1,2,4]triazolo[4,3-a]pyrazin-6(5H)-one]
> 10000	2.77 ± 0.636	3.41 ± 1.52	2.59 ± 1.69	2120	> 100000	CCCn1c(=O)c2nnc(C3(C4CC4)CC3)n2c2ncc(C)cc21 [Example 3, 9-([1,1′-Bi(cyclopropan)]-1-yl)-3-methyl-5-propylpyrido[3,2-e][1,2,4]triazolo[4,3-a]pyrazin-6(5H)-one]
> 10000	0.931 ± 0.132	2.41 ± 0.846	2.75 ± 2.11	14700 ± 8240	22900 ± 1140	O=c1c2nnc(C3(C4CC4)CC3)n2c2nc(O)ccc2n1CC1CC1 [Example 5, 9-([1,1′-bi(cylopropan)]-1-yl)-5-(cyclopropylmethyl)-2-hydroxypyrido[3,2-e][1,2,4]triazolo[4,3-a]pyrazin-6(5H)-one]
9590	2.57 ± 0.544	15.4 ± 0.0529	11.6 ± 7.55	6010	> 100000	CCCCn1c(=O)c2nnc(C3(C)CC3)n2c2ncc(C)cc21 [Example 6, 5-butyl-3-methyl-9-(1-methylcyclopropyl)pyrido[3,2-e][1,2,4]triazolo[4,3-a]pyrazin-6(5H)-one]
1200	< 0.5	0.4 ± 0.867	0.343 ± 0.765	3020	71200	CCCCn1c(=O)c2nnc(C3(C4CC4)CC3)n2c2nc(C)c(C)cc21 [Example 7, 9-([1,1′-Bi(cyclopropan)]-1-yl)-5-butyl-2,3-dimethylpyrido[3,2-e][1,2,4]triazolo[4,3-a]pyrazin-6(5H)-one]
3290	2.14 ± 0.997	9.34 ± 4.33	8.01 ± 3.55	957	> 100000	CCCCn1c(=O)c2nnc(C3(C)CC3)n2c2ncc(CC)cc21 [Example 8, 5-butyl-3-ethyl-9-(1-methylcyclopropyl)pyrido[3,2-e][1,2,4]triazolo[4,3-a]pyrazin-6(5H)-one]
	< 0.5			675		CCCCn1c(=O)c2nnc(C3(C4CC4)CC3)n2c2ncc(CC)cc21 [Example 9, 9-([1,1′-Bi(cyclopropan)]-1-yl)-5-butyl-3-ethylpyrido[3,2-e][1,2,4]triazolo[4,3-a]pyrazin-6(5H)-one]
611	< 0.5	0.396 ± 0.749	0.26 ± 0.589	972	> 100000	CCCCn1c(=O)c2nnc(C3(C4CC4)CC3)n2c2ncc(C(C)C)cc21 [Example 10, 9-([1,1′-bi(cyclopropan)]-1-yl)-5-butyl-3-isopropylpyrido[3,2-e][1,2,4]triazolo[4,3-a]pyrazin-6(5H)-one]
	< 0.5			5560		CCCCn1c(=O)c2nnc(C3(C4CC4)CC3)n2c2ncc(CO)cc21 [Example 11]
3060 ± 1450	4.02 ± 0.167	17.4 ± 10	23 ± 3.62	5130 ± 2140	≥ 93400	CCCCn1c(=O)c2nnc(C3(C)CC3)n2c2ncc(CO)cc21 [Example 12, 5-Butyl-3-(hydroxymethyl)-9-(1-methylcyclopropyl)pyrido[3,2-e][1,2,4]triazolo[4,3-a]pyrazin-6(5H)-one]
2990	< 0.5	1.13 ± 0.254	0.816 ± 0.198	2090	19200	CCCCn1c(=O)c2nnc(C3(C4CC4)CC3)n2c2nc(C)ccc21 [Example 13, 9-([1,1′-bi(cyclopropan)]-1-yl)-5-butyl-2-methylpyrido[3,2-e][1,2,4]triazolo[4,3-a]pyrazin-6(5H)-one]
